Results published in patent publication US7074812B2, “Development of muscle mass in a mammal” (Nutraleutical Development Corporation, priority 2002, dated 2006).
Like-named read-outs stand apart in the source and are kept apart here.

What was measured:
[1] = test system: healthy male mice; details: 60 micrograms nicotine/ml drinking water
Excerpt: To study the effects of nicotine in the diet of mice in combination with exercise, 34 mice were divided into two equal groups. The diet of one group of mice was supplemented with nicotine added to the drinking water and the other group had plain water. Both groups received the same chow and water freely.
The experiment was a double-blind investigative study including a total of 34 healthy male mice that were approximately 9 weeks old, weighing approximately 35 grams. The mice were received one week prior to the start of the study to allow for a week of acclimation to the study site and the handlers. Because mice are active when it is dark and sleep when it is light, an automatic lighting system (12 hour dark/12 hour light) was set up for the duration of the study. The dark cycle was from 9 pm to 9 am and the light cycle from 9 am to 9 pm. The mice were subjected to a 3 week weighted exercise regimen on a treadmill wheel.
The 34 mice were divided in 2 groups of 17 mice each. Group 1 (nicotine treatment) received water laced with nicotine containing 60 micrograms nicotine/ml water and 10 mg saccharine tablet or pinch of a sugar substitute powder. The sugar substitute served to mask the bitter taste of nicotine in the water. Group 2 (placebo or control) followed the same weight exercise regimen as the nicotine treatment group. Their drinking water was plain water with the same amount of saccharine or sugar substitute as in Group 1. Each mouse had access to its water ad libitum daily during the study period, regardless of the group. Weekly water consumption was measured.
Mice in both groups were subjected to a weight/exercise regimen in the morning at the end of the dark cycle around 8:00 am. Weights were affixed to each animal at the beginning of the exercise. The weights were approximately 10% of body weight measured at Day -1 of the study, and adjusted based on body weight, measured weekly. The mice were exercised for 15 minutes per day or until exhaustion, 5 days a week for 3 weeks on a Mouse Forced Exercise Walking/Running Wheel System (Model 80800, Lafayette Instrument, North Lafayette, Ind. 47903). The largest part of the upper hind muscle of the mice was measured with a dial caliper every week. Two measurements on each leg were taken and the average was calculated.

[2] = test system: males aged 30–59 years old
Experimental: In order to determine the effects of a nicotine supplement on human subjects, a double blind placebo controlled study was conducted. The study tested 32 males aged 30–59 years old. Each participant needed to have been weight-lifting and exercising on a consistent basis for at least one full year prior to the study. The study required each of the 32 males to remain consistent with their current exercise program (minimum of 3×'s per week), required not to add any new exercises to their current program, not add any new supplements to their diet during the six week study and to take the nicotine supplement 30 minutes prior to exercise. The nicotine supplement was 3 micrograms of nicotine in a standard 300 mg capsule containing polyethylene gycol (PEG) as a vehicle. The placebo capsule was identical in all aspects but contained no active (nicotine) ingredients.
The 32 males were subdivided into 4 groups, 2 placebo groups (8 took 1 capsule and 8 took 2 capsules with no active nicotine ingredients prior to exercise). In the other two groups (active), 8 subjects took 3 micrograms of nicotine and 8 took 6 micrograms of nicotine prior to exercise. The individuals were tested in the beginning and conclusion of the study in the following areas: (1) overall body fat/lean muscle ratio (ELG impedance test was used, which is 98% accurate compared to skinfold testing); (2) biceps; (3) upper leg muscle mass; and (4) 10 exercise repetition maximum, for both upper and lower body strength test (bench press and leg press). Participant workouts were logged by each individual in their own notebooks, to ensure consistency and compliance

[3] = 1 capsule (3 micrograms of nicotine), n = 8
[4] = 2 capsules (6 micrograms of nicotine), n = 8
[5] = Nicotine 1 or 2 capsules pooled, n = 16
[6] = individual subjects, six-week study

CN1CCCC1c1cccnc1 (stereo not shown) [Nicotine, nicotine]
increase in leg diameter versus control group, overall ([1]; 3 weeks): significantly greater increase in leg diameter | average increase of leg diameter, average of day 7, 14 and 21 compared with day 0 ([1]; control 0.5 mm): 1.7 mm | average increase of leg diameter compared to day 0 ([1]; day 7, control 0.6 mm): 1.6 mm | average increase of leg diameter compared to day 0 ([1]; day 14, control 2.1 mm): 2.8 mm | increase of leg diameter compared to day 0 ([1]; day 21, control 1.1 mm decrease): 0.7 mm | Upper-body Strength, Change Over Study (Post-Pre), Median (Range) ([2]; 1 capsule (3 micrograms of nicotine) prior to exercise, n = 8, bench press 10 repetition maximum): 10.00 (5.00, 20.00) | Bicep Circumference, Change Over Study (Post-Pre), Median (Range) [2, 3]: 0.45 (−0.20, 2.00) cm | Body Fat %, Change Over Study (Post-Pre), Median (Range) [2, 3]: −0.65 (−1.90, 0.70) % | Body Mass Index, Change Over Study (Post-Pre), Median (Range) [2, 3]: −0.13 (−0.79, 0.45) | Lean Mass %, Change Over Study (Post-Pre), Median (Range) [2, 3]: 0.65 (−0.70, 1.90) % | Quadricep Circumference, Change Over Study (Post-Pre), Median (Range) [2, 3]: 0.00 (−2.00, 2.50) cm | Weight, Change Over Study (Post-Pre), Median (Range) [2, 3]: −1.00 (−6.00, 3.00) lbs | Lower-body Strength, Change Over Study (Post-Pre), Median (Range) ([2]; 1 capsule (3 micrograms of nicotine), n = 8, leg press 10 repetition maximum): 65.00 (15.00, 90.00) | Upper-body Strength, Change Over Study (Post-Pre), Median (Range) ([2]; 2 capsules (6 micrograms of nicotine) prior to exercise, n = 8, bench press 10 repetition maximum): 10.00 (5.00, 20.00) | Bicep Circumference, Change Over Study (Post-Pre), Median (Range) [2, 4]: 0.63 (−1.50, 1.70) cm | Body Fat %, Change Over Study (Post-Pre), Median (Range) [2, 4]: −1.05 (−5.90, 0.10) % | Body Mass Index, Change Over Study (Post-Pre), Median (Range) [2, 4]: −0.08 (−1.22, 0.94) | Lean Mass %, Change Over Study (Post-Pre), Median (Range) [2, 4]: 1.05 (−0.10, 5.90) % | Quadricep Circumference, Change Over Study (Post-Pre), Median (Range) [2, 4]: 0.00 (−2.00, 3.00) cm | Weight, Change Over Study (Post-Pre), Median (Range) [2, 4]: −0.50 (−8.00, 6.75) lbs | Lower-body Strength, Change Over Study (Post-Pre), Median (Range) ([2]; 2 capsules (6 micrograms of nicotine), n = 8, leg press 10 repetition maximum): 80.00 (20.00, 320.00) | Bicep Circumference, Change Over Study (Post-Pre), Median (Range) [2, 5]: 0.45 (−1.50, 2.00) cm | Body Fat %, Change Over Study (Post-Pre), Median (Range) [2, 5]: −0.95 (−5.90, 0.70) % | Body Mass Index, Change Over Study (Post-Pre), Median (Range) [2, 5]: −0.11 (−1.22, 0.94) | Lean Mass %, Change Over Study (Post-Pre), Median (Range) [2, 5]: 0.95 (−0.70, 5.90) % | Lower-body Strength, Change Over Study (Post-Pre), Median (Range) [2, 5]: 70.00 (15.00, 320.00) | Quadricep Circumference, Change Over Study (Post-Pre), Median (Range) [2, 5]: 0.00 (−2.00, 3.00) cm | Upper-body Strength, Change Over Study (Post-Pre), Median (Range) [2, 5]: 10.00 (5.00, 20.00) | Weight, Change Over Study (Post-Pre), Median (Range) [2, 5]: −0.75 (−8.00, 6.75) lbs | subjects who noted an increase in overall endurance, leg strength and a strong thermogenic effect ([2]; active (nicotine) group, six-week study): 13 of the 16 | individuals who made significant changes in either body, strength levels or muscle mass or in all three test areas ([2]; active (nicotine) group, placebo five of the sixteen): Fifteen of the sixteen | change of overall body fat, one subject ([2]; individual subject, six-week study): 32% | increase of leg strength, five subjects [2, 6]: over 25% | increase of leg strength, two of the five subjects [2, 6]: 40%
